In patent US11065266B2, “Method of treating melanoma using an inhibitor of an atypical protein kinase C” (UNIVERSITY OF SOUTH FLORIDA, priority 2016, dated 2021):

How the values were obtained:
[1] = tested on: malignant melanoma cells (SK-MEL-2 and MeWo); assay: WST-1 assay, ζ-Stat; format: cell-based, human; conditions: 2.5 μM
Procedure: (§1) Approximately 4×10^3 cells (PCS-200-013, SK-MEL-2 and MeWo) were cultured in a 96 well plate. […] This IC50 was obtained based on the cell viability counts in the previous experiments. Additional doses of sterile water or inhibitor were supplied every 24 h during 3 day incubation period. At the end of 3 day treatment, media were removed and fresh media (100 μL) were added with 4-[3-(4-iodophenyl)-2-(4-nitropheny))-2H-5-tetrazolio]-1,3-benzene disulfonate (WST-1) reagent (10 μL) to each well. The absorbance was measured at 450 nm for every 0.5 hour up to 3 hours using the Synergy HT microplate reader from Biotek (Winooski, Vt.).
Cell proliferation was measured using WST-1 assay for SK-MEL-2 (FIG. 16A) and MeWo (FIG. 16b). Absorbance at 450 nm due to production of water soluble formazan was measured as a function of time and the absorbance is directly proportional to the number of cells. The experimental concentration for ζ-Stat was 2.5 μM. N=3 experiments were performed for each cell line and mean±SD are plotted.

MeWo cells [2] = assay: WST-1 assay for cell viability and cytotoxicity; format: cell-based, human; conditions: treated at IC50, 3 days
Procedure: as §1
WST-1 assay was performed to determine the in-vitro cytotoxicity of ACPD and DNDA on normal and malignant cell lines. Measured absorbance at 450 nm is directly proportional to the number of cells present. Cells produce a water soluble formazan with WST-1 as a result of their mitochondrial dehydrogenase activity. WST-1 assay is preferred over 3-(4,S-Dimethyl-2-thiazolyl)-2, 5-diphenyl-2Htetrazolium bromide (MTT) test since MTT needs to add acidic isopropanol to dissolve formazan which gives an additional toxicity to cells.

SK-MEL-2 cells = assay: Western blot of protein levels; format: cell-based, human; set-up: reduction of PKC-ι level / reduction of pPKC-ι level / reduction of PKC-ζ level / reduction of pPKC-ζ level: concentration or dose not given beside the values; conditions: for reduction of PKC-ζ level / reduction of PKC-ι level / reduction of pPKC-ζ level / reduction of pPKC-ι level: vs respective control
Procedure: Approximately 2×10^5 cells from PCS-200-013 and SK-MEL-2 cell lines were plated in T25 flasks until they become 70% confluent. Confluent cells were semi-synchronized by contact inhibition and serum starvation for 48 hrs. Subsequently, cells were incubated with serum and atypical inhibitors. The cells were removed at specific times and were placed in ice to terminate the incubation. Cells were washed at least two times with ice cold DPBS. Cells were then scrapped, re-suspended and sonicated in 500 μL of homogenization buffer (50 mM HEPES—pH 7.5), 150 mM NaCl, 0.1% Triton X, 1 mM EDTA (ethylenediaminetetraacetic acid), 2 mM EGTA [glycol-bis (2-aminoethylether)-N, N, N′,N′-tetraacetic acid], 0.1 mM orthovanadate, 1 mM NaF, 2 mM PMSF (phenylmethylsulphonylfluoride), 1 mM DTT (dithiothreitol) and 0.15 U/mL aprotinin. Cell suspensions was then sonicated and centrifuged at 100,000 g for 30 minutes. The protein concentrations was determined using Bradford method. Subsequently, approximately 800 μg of proteins were immunoprecipitated with the antibody against desired protein. In some cases cell lysates were suspended with anti-HFS-1 antibody, rocking overnight at 4° C. Agarose beds were added after 24 hrs. Then the complex of cell lysate-anti HSF-1 antibody-agarose beads was rocked at 4° C. for 2 hrs. After washing the beads, approximately […] the sample loading buffer was added to dissolve all the protein on the beads. Proteins were then separated on sodium dodecyl sulfate polyacrylamide gel electrophoresis (SDS-PAGE) and transblotted followed by immunoblotting with anti-PKC-ζ or anti-PKC-ι or anti-HSF-1 antibody or phosphospecific antibodies. Immunoreactive bands were visualized with enhanced chemiluminescence. […]
(§2) Western blots (WB) were performed to investigate the effect of ACPD and DNDA on the expression of aPKCs on malignant melanoma. […] DNDA decreased the levels of PKC-ι by 52%, pPKC-ι by 33% in SK-MEL-2 cells and by 27% of PKC-ι and pPKC-ι by 20% in MeWo cells.
(§3) DNDA reduced the levels of PKC-ζ by 33%, pPKC-ζ by only 17% in SK-MEL-2 cells and by 60% of PKC-ζ and pPKC-ζ by 29% in MeWo cells. All values (percent) were calculated compared to their respective control in Western blot. B-actin was used as the internal control to ensure that equal amounts of proteins were loaded in each lane in SDS-PAGE.

MeWo cells [3] = assay: Western blot of protein levels; format: cell-based, human; set-up: concentration or dose not given beside the values; conditions: vs respective control
Procedure: Approximately 2×10^5 cells from PCS-200-013 and SK-MEL-2 cell lines were plated in T25 flasks until they become 70% confluent. Confluent cells were semi-synchronized by contact inhibition and serum starvation for 48 hrs. Subsequently, cells were incubated with serum and atypical inhibitors. The cells were removed at specific times and were placed in ice to terminate the incubation. Cells were washed at least two times with ice cold DPBS. Cells were then scrapped, re-suspended and sonicated in 500 μL of homogenization buffer (50 mM HEPES—pH 7.5), 150 mM NaCl, 0.1% Triton X, 1 mM EDTA (ethylenediaminetetraacetic acid), 2 mM EGTA [glycol-bis (2-aminoethylether)-N, N, N′,N′-tetraacetic acid], 0.1 mM orthovanadate, 1 mM NaF, 2 mM PMSF (phenylmethylsulphonylfluoride), 1 mM DTT (dithiothreitol) and 0.15 U/mL aprotinin. Cell suspensions was then sonicated and centrifuged at 100,000 g for 30 minutes. The protein concentrations was determined using Bradford method. Subsequently, approximately 800 μg of proteins were immunoprecipitated with the antibody against desired protein. In some cases cell lysates were suspended with anti-HFS-1 antibody, rocking overnight at 4° C. Agarose beds were added after 24 hrs. Then the complex of cell lysate-anti HSF-1 antibody-agarose beads was rocked at 4° C. for 2 hrs. After washing the beads, approximately […] the sample loading buffer was added to dissolve all the protein on the beads. Proteins were then separated on sodium dodecyl sulfate polyacrylamide gel electrophoresis (SDS-PAGE) and transblotted followed by immunoblotting with anti-PKC-ζ or anti-PKC-ι or anti-HSF-1 antibody or phosphospecific antibodies. Immunoreactive bands were visualized with enhanced chemiluminescence.
as §2, §3

other PKC isoforms = conditions: cited from earlier work
[4] = tested on: MAPK, Akt2, FGFR 1/2/3/4, mTOR, GSK3B, IRAK1/4, JAK 1/2, MEK1, ERK1/2, JNK 1/2, PKA, Src, ROCK2 and PI3K; conditions: cited from earlier work
[5] = upon increasing concentration, vs control

| Compound | decrease of Bcl-2 levels (SK-MEL-2 cells) [%] | decrease of CD44 (SK-MEL-2 cells) [%] | decrease of Vimentin levels (SK-MEL-2 cells) [%] | decrease of β-catenin (SK-MEL-2 cells) [%] | increase of Caspase-3 levels (SK-MEL-2 cells) [%] | increase of E-cadherin levels (SK-MEL-2 cells) [%] | increase of NF-KB p65 levels (SK-MEL-2 cells) [%] | increase of cleaved PARP levels (SK-MEL-2 cells) [%] | reduction of PKC-ζ level (SK-MEL-2 cells) [%] | reduction of PKC-ι level (SK-MEL-2 cells) [%] | reduction of pPKC-ζ level (SK-MEL-2 cells) [%] | reduction of pPKC-ι level (SK-MEL-2 cells) [%] | reduction of PKC-ζ level (MeWo cells [3]) [%] | reduction of PKC-ι level (MeWo cells [3]) [%] | reduction of pPKC-ζ level (MeWo cells [3]) [%] | reduction of pPKC-ι level (MeWo cells [3]) [%] | other results |
| --- | --- | --- | --- | --- | --- | --- | --- | --- | --- | --- | --- | --- | --- | --- | --- | --- | --- |
| O=S(=O)(O)c1cc(O)c2c(S(=O)(=O)O)cc(S(=O)(=O)O)cc2c1 [ζ-Stat, 8-hydroxy-1,3,6-naphthalenetrisulfonic acid] | – | – | – | – | – | – | – | – | – | – | – | – | – | – | – | – | toxicity according to the WST-1 assay [1]: did not show toxicity |
| CC(=O)C1=C(O)CCC1=O [ACPD, 2-acetyl-1,3-cyclopentanedione] | 13 | 19 | 51 | 39 | 26 | 18 | 31 | 14 | 42 | 43 | 29 | 31 | 42 | 46 | 23 | 26 | WST-1 absorbance at 450 nm, effect (MeWo cells [2]): did not show a significant effect; decrease of PARP levels (SK-MEL-2 cells): 33%; PKC-ζ level (SK-MEL-2 cells; [5]): decreased; PKC-ι level (SK-MEL-2 cells; [5]): good decrease; effect on other PKC isoforms (other PKC isoforms): without affecting; inhibition of other kinases [4]: does not inhibit |
| Nc1c(S(=O)(=O)O)cc2cc(S(=O)(=O)O)ccc2c1N [DNDA, 3,4-diamino-2,7-naphthalenedisulfonic acid] | 7 | 27 | 49 | 13 | 32 | 28 | 49 | 16 | 33 | 52 | 17 | 33 | 60 | 27 | 29 | 20 | increase of PARP levels (SK-MEL-2 cells): 12% |
